The values below come from US12628829B2, “Compositions comprising recombianant Bacillus cells and an insecticide” (BASF CORPORATION, priority 2014, dated 2026).

The test system of this test is Maize. Nature of the test: Plant growth promotion, maize whole plant biomass after soil drench. Type of test: in vivo. On the procedure:
For instance, the formula and analysis can be applied to an evaluation of plant growth promotion. Such an assay is evaluated several days after the applications to plants. 100% means plant weight which corresponds to that of the untreated control plant. Efficacy means in this case the additional % of plant weight in comparison to that of the untreated control.
Experiments were conducted to analyze efficacy of a combination of flupyradifurone and a fermentation product of recombinant Bacillus thuringiensis cells expressing phospholipase C (“BEPC”). Maize seeds were grown in sterile mixture of synthetic media and sand in small three-inch square pots on light racks in a plant growth room at 25-28° C. and 50% humidity for about 14 days. Two seeds were planted in each pot. At planting, the growing media in each pot was drenched with the treatments described below. After 14 days, plants were measured for whole plant biomass. In the tables below, UTC refers to untreated control. “Calculated” refers to the expected effect calculated using the above-described Colby equation and “Efficacy” refers to the actual effect observed.
The SIVANTO® product, which contains flupyradifurone as its active ingredient (17.09% flupyradifurone), was diluted in 50 mL water and the diluted solution was used to drench the growing media. The application rate shown below refers to the amount of active ingredient (i.e., flupyradifurone) applied to the growing media.
A recombinant Bacillus cereus family member (Bacillus thuringiensis BT013A) expressing phospholipase C on its exosporium (BEPC) was generated as follows. […]
To obtain whole broth cultures of BEPC, 15 ml conicals containing brain heart infusion media (BHI) were inoculated with BEPC and grown for 7-8 hours at around 30° C. at a shaker setting of 300 rpm. […] After approximately 2 days of incubation, when sporulation was at least 95% completed, the culture broth was harvested and colony forming units calculated. […]

For `O=C1C=C(N(Cc2ccc(Cl)nc2)CC(F)F)CO1` [Flupyradifurone, flupyradifurone], the Efficacy % (actual effect observed: additional % of plant weight versus UTC, 14 days) turned out to be 3%. Further, under “growing media drenched at planting, measured after 14 days, flupyradifurone 1.36 mg/pot, BEPC 7 × 10^8 CFU/pot”, the “Whole Plant Biomass” value is on record as 3.50 g. Besides, the Found % (plant weight relative to UTC = 100, drench at planting, 14 days) is given as 103%.
